The source of these data is patent US12491187B2, “Use of MCT1 inhibitors to enhance insulin sensitivity” (H. LEE MOFFIT CANCER CENTER AND RESEARCH INSTITUTE, INC., priority 2022, dated 2025).

Holding throughout (format): cell-based, murine
For data set [1], the system named is differentiated 3T3-L1 (WT) cells. As to the kind of experiment: Glucose uptake (Glucose Uptake-Glo) in WT adipocytes. To be noted: for insulin-stimulated glucose uptake: then 175 nM insulin 30 minutes. As to the method: Glucose Uptake: 3T3-L1 cells were seeded and differentiated in clear bottom 96-well plates (Corning®). After differentiation, cells were treated with or without […] AZD3965 for 24 hr, 48 hr or 72 hr as illustrated in FIG. 7 (schematic outline of experimental procedure). The cells were incubated in serum free media the night before performing the assay. The following day/morning, media was changed to serum and glucose free media for 2 hr prior to the experiment. Cells were then stimulated with 175 nM Insulin or vehicle (PBS) for 30 minutes. Glucose Uptake was measured using the Glucose Uptake-Glo™ Assay (Promega®) according to the manufacturer's protocol. The data generated were normalized by dividing the relative luminescence units (RLU) measured in insulin stimulated wells by vehicle treated controls. The aforementioned experiment was repeated in the presence of the CDK1 inhibitor, RO-3306 (10 μM), where indicated (FIG. 5C).

The test system is the same in data set [2]. The data set can be described thus: Oil Red O staining of fully differentiated adipocytes. To be noted: 1 μM, 24 hr, 48 hr or 72 hr. As to the method:
Differentiation Protocol: The 3T3-L1 differentiation protocol was adapted from Green and Meuth (1974) (Zebisch, K, et al. Anal. Biochem. 2012 425:88-90; Green, H, et al. Cell 1974 3:127-133). Cells were seeded at approximately 80% confluency and allowed to reach confluency prior to induction of differentiation. 1-2 days post confluency, growth media was changed to ‘day 0’ media consisting of media supplemented with 0.5 mM 1-methyl-3-isobutyl xanthine (IBMX), 1 µM dexamethasone, and 10 μg/mL insulin. On ‘day 3’ media was changed to growth media with 10 μg/mL insulin only, and on ‘day 6’ media was replaced with normal growth media. After day 6, the complete media was refreshed every 2 days. Using Oil Red O staining, RT-qPCR and immunoblotting, it was determined that 3T3-L1 cells were fully differentiated into lipid-laden adipocytes by ‘day 8’ of the protocol, as reported by others (Petersen, C, et al. Sci. Rep. 2017 7:13101; Mangum, L H, et al. Toxicol. Lett. 2015 238:65-71). All differentiation experiments were performed on cells between passage 4 and 6 to ensure differentiation efficiency was consistent. Oil Red O Staining: Cells were then fixed with 4% PFA for 10 minutes. […] 10× images of cells were taken from randomized fields of view with the Cytation 5 Cell Imaging Multi-Mode reader (BioTek Instruments). Lipid content was also quantified on the Cytation 5.

The test system of data set [3] is differentiated 3T3-L1 cells. As to the kind of experiment: RT-qPCR of mRNA levels in differentiated adipocytes. The protocol: RT-qPCR: RNA was harvested from preadipocytes using the RNeasy® Plus Mini Kit as per manufacturer's recommendations (Qiagen). For differentiated adipocytes, RNA was collected and isolated using TRIzol (Thermo Fisher Scientific) according to the manufacturer's instructions. Quantification of RNA was performed using the Nanodrop 1000 Spectrophotometer. RNA (2 μg) was reverse transcribed using Superscript III First Strand synthesis kit (Invitrogen). RT-qPCR detection with SYBR green was performed with the resulting cDNA and a 50/50 forward primer: reverse primer ratio using the QuantStudio™ 5 (Applied Biosystems™). Oligonucleotide primer sequences used in this study can be found in the table below.

The test system of data set [4] is differentiated 3T3-L1 adipocytes. As to the kind of experiment: NAD+/NADH ratio (NAD+/NADH-Glo). To be noted: 1 μM. As to the method: NAD+/NADH Ratio: 3T3-L1 cells were seeded, differentiated and treated with or without AZD3965 (1 μM) for 15 min, 30 min, 1 hr, 4 hr, 8 hr or 24 hr in clear 96 well plates (Corning®). Following incubation with the compound, the NAD+/NADH-Glo™ (Promega®) kit was used to measure both the NAD+ and NADH concentrations within each sample according to the manufacturer's protocol. Briefly, samples were lysed and split into 2 separate white 96 well plates (Corning®). One plate was treated with a strong acid (0.4N HCl) to eliminate NADH in the sample while the other plate was treated with a strong base (0.2N NaOH) to eliminate NAD+, and both plates were incubated at 60° C. for 15 minutes. Samples were then neutralized and subjected to the NAD+/NADH-Glo™ assay. Within this assay, in the presence of NAD+ or NADH, an enzyme ‘Reductase’ reduces a pro-luciferin reductase substrate to form luciferin which emits a luminescent signal directly proportional to the quantity of NAD+ or NADH within the sample. Luminescence was read on a spectrophotometer (FlexStation 3; Molecular Devices). To calculate the NAD+/NADH ratio for each sample, luminescence from acid-treated samples, (reflecting NAD+level), was divided by the luminescence signal from the corresponding base-treated samples (reflecting NADH levels).

Data set [5] relates to differentiated 3T3-L1 cells. The data set can be described thus: Proliferation (CyQUANT NF) of differentiated adipocytes. To be noted: 72 hr treatment, all concentrations ≥1 μM. The protocol:
Proliferation: 3T3-L1 cells were seeded and differentiated in black clear bottom 96-well plates (Corning®). After differentiation, wells were treated with vehicle or AZD3965 concentrations ranging from 10 nM to 10 µM for 24 hr, 48 hr or 72 hr as indicated. Cell viability was measured at the end of each treatment time using the CyQUANT™ NF Cell Proliferation assay (Invitrogen™) according to the manufacturer's protocols.

The subject of data set [6] is differentiated 3T3-L1 (WT) cells. To be noted: mouse. The protocol:
Cell Viability: 3T3-L1 cells were seeded and differentiated in white, clear bottom, 384-well plates (Corning®). Following differentiation, adipocytes were treated for 24, 48 or 72 hr with varying concentrations of AZD3965 ranging from 0.1 nM to 10 µM. Following the indicated incubation period, cells were assayed with CytoTox-Glo™ (Promega®) according the manufacturer's instructions to assess cell toxicity. Briefly, this assay is a luminescent cytotoxicity kit that measures the relative number of dead cells in a population through the addition of a cell impermeant luminogenic substrate which luminesces in the presence of ‘dead-cell protease’, a protein released from membrane-compromised, dead cells. Luminescence was read on a spectrophotometer (FlexStation 3; Molecular Devices). The data generated were normalized by dividing the relative luminescence units (RLU) collected for each experimental condition by the average RLU of ‘basal’ untreated cells considered to be 100% viable.

Where [7] appears, read: differentiated adipocytes, 1 μM, 24 hr.
Setting [8] is: mature adipocytes, 24 hr treatment.

Consider `Cc1[nH]nc(C(F)(F)F)c1Cc1sc2c(c1C(=O)N1C[C@](C)(O)CO1)c(=O)n(C)c(=O)n2C(C)C` [AZD3965, 5-[[(4S)-4-hydroxy-4-methyl-2-isoxazolidinyl]carbonyl]-3-methyl-1-(1-methylethyl)-6-[[5-methyl-3-(trifluoromethyl)-1H-pyrazol-4-yl]methyl]-thieno[2,3-d]pyrimidine-2,4 (1H, 3H)-dione], for which the insulin-stimulated glucose uptake result in data set [1] (1 μM for 24 hr) is “did not reach statistical significance”. Besides, the insulin-stimulated glucose uptake entry in data set [1] (1 μM for 48 hr and 72 hr) was “significant increase”. For the same compound, the “basal, non-insulin stimulated glucose uptake” value in data set [1] (1 μM, 24-72 hr) is “no impact”. Moreover, in data set [2], the “lipid content (Oil Red O staining) of differentiated adipocytes” value is recorded as “progressive decrease in lipid content”. In data set [3] (setting [7]), the “CDK1 mRNA level” value is “significant upregulation”, the “Cyclin B mRNA level” value is “significant upregulation”, the “PLK1 mRNA level” value is “significant upregulation” and the “TOP2A mRNA level” value is listed as “significant upregulation”. For the same compound, in data set [3] (setting [8]), the “FABP4 mRNA levels” value is recorded as “significantly increased”, the “HSL mRNA levels” value is “significantly decreased” and the PPARγ transcript levels result was “significant decrease”. Also, the “NAD+/NADH ratio” value in data set [4] (all time points measured (15 min-24 hr)) is listed as “significant change”. The “NAD+/NADH ratio” value in data set [4] (first 8 hr of treatment) is given as “significant decrease”. Besides, the “total cell number (proliferation)” value in data set [5] was “significant increase in total cell number”. In addition, the “cytotoxicity / cell viability” value in data set [6] is given as “not due to AZD3965-induced cytotoxicity”.
